# Patent publication US20130217594A1, “METHODS FOR SCREENING COMPOUNDS FOR CAPABILITY TO INHIBIT PREMALIGNANT SQUAMOUS EPITHELIAL CELL PROGRESSION TO A MALIGNANT STATE” (Institute for Cancer Research d/b/a The Research Center of …, priority 2010, published 2013)
# Experiments:
# Assay type in all cases: cell-based, human
# [1] = tested on: HNSCC cells; assay: Quantitative real-time RT-PCR of transcript levels after E2 exposure, HNSCC cells; settings: E2 1 nM, 24 h
# Procedure: Cell lines and treatments. MSK-Leuk1 cells were derived from a dysplastic leukoplakia lesion located adjacent to a SCC of the tongue. MSK-Leuk1 cells were cultured in KGM medium (Lonza, Walkersville, Md.). MSK-Leuk1 cells (passage 33) were determined to be identical to the early passage MSK-Leuk1 cells (Identity Mapping Kit, Coriell Institute for Medical Research, Camden, N.J.). All HNSCC cell lines were derived from patients with SCC of the tongue. SCC9 ([…]) and SCC15 ([…]) cells were cultured in S-MEM medium, supplemented with 2 mM L-glutamine, 100 units/ml penicillin, 100 μg/ml streptomycin and 10% FBS. […]
# For all the experiments that involved estradiol (E2) exposure, MSK-Leuk1 cells were cultured in phenol red-free and serum-free DermaLife K Medium (Lifeline Cell Technology, Walkersville, Md.). […] Cells were harvested after the appropriate treatment period and analyzed.
# Quantitative real-time reverse transcription PCR. RNA was extracted from pelleted cultured cells using the RNeasy Mini kit (Qiagen, Valencia, Calif.) and its quality (18S and 28S RNA) was evaluated by gel electrophoresis. cDNA was synthesized from 1 μg of total RNA, using the High Capacity cDNA Archive Kit (Applied Biosystems, Inc., Foster City, Calif.). […] Transcript levels were quantified and expressed relative to those of the human transferrin receptor (TFRC) as 2^-ΔCt.
# [2] = tested on: MSK-Leuk1 cells; assay: Cell motility assay (scratch gap closure); settings: vector or CYP1B1 shRNA, E2 1 nM, 16 h post-scratch
# Procedure: Cell motility assay. MSK-Leuk1 cells, expressing either vector or CYP1B1 shRNA, were cultured in phenol red-free and serum-free medium for 48 h and then plated at 70% confluence. After 24 h, the cells were treated with either vehicle or E2 (1 nM) in triplicate, as described above. When cells reached 100% confluence (48 h later), the surface of the cell culture dish was carefully scratched using a micropipette tip, thus making an evenly distributed gap in the cell monolayer. The medium was replaced, and five representative images of each gap were acquired at 0 h using a Nikon TE-2000U wide field inverted microscope (Optical Apparatus Co., Ardmore, Pa.) equipped with a Roper Scientific Cool Snap HQ camera. Another set of 5-10 representative images per gap was obtained following a 16-h incubation. The area devoid of cells was measured on every image using MetaMorph 7.0 (Molecular Devices, Inc., Sunnyvale, Calif.). The gap closure percentages were calculated as (area at 0 h−area at 16 h)/(area at 0 h).
# In addition, a time-lapse movie capturing the process of gap closure in vector-expressing MSK-Leuk1 cells was obtained. The medium was replaced with fresh medium containing 25 mM HEPES buffer, and cells were allowed to incubate for 1 h at 37° C. […] The percentage of proliferating cells (those rounded up for cell division) was counted in this representative area.
# [3] = tested on: MSK-Leuk1 cells; assay: Cell proliferation (total DNA, Fluorescent DNA Quantitation kit); settings: vector-expressing MSK-Leuk1 cells, E2 1 nM, 72 h, not statistically significant
# Procedure: Cell proliferation. Fifty thousand cells/well were plated in 6-well plates. After the appropriate treatment, the DNA content of the cells, an indirect measure of proliferation, was determined using a Fluorescent DNA Quantitation kit (Bio-Rad Laboratories, Hercules, Calif.). In brief, cells were harvested, sonicated in 0.1× TEN assay buffer (Bio-Rad Laboratories) for 5 s, and incubated with a Hoechst dye mixture (BioRad Laboratories) for 1 h. Total DNA was measured using Fluoroscan Ascent FL (Thermo Fisher Scientific, Waltham, Mass.) at an excitation wavelength of 360 nm and an emission wavelength of 460 nm.
# [4] = tested on: MSK-Leuk1 cells; assay: Quantitative real-time RT-PCR of transcript levels after E2 exposure, MSK-Leuk1 cells; settings: E2 1 nM
# Procedure: For all the experiments that involved estradiol (E2) exposure, MSK-Leuk1 cells were cultured in phenol red-free and serum-free DermaLife K Medium (Lifeline Cell Technology, Walkersville, Md.). SCC cells were cultured in their respective media with no phenol red, supplemented with charcoal-stripped serum (Gibco, Carlsbad, Calif.). Cells were incubated for 48 h to remove endogenous estrogens and then plated at 70% confluence. After 24 h, the medium was replaced with either control medium containing vehicle (0.01% ethanol) or medium supplemented with 1 nM E2 (Sigma-Aldrich, St. Louis, Mo.). Cells were harvested after the appropriate treatment period and analyzed.
# Quantitative real-time reverse transcription PCR. RNA was extracted from pelleted cultured cells using the RNeasy Mini kit (Qiagen, Valencia, Calif.) and its quality (18S and 28S RNA) was evaluated by gel electrophoresis. cDNA was synthesized from 1 μg of total RNA, using the High Capacity cDNA Archive Kit (Applied Biosystems, Inc., Foster City, Calif.). Three μl of the resulting cDNA were mixed with 12.5 μl of 2× TaqMan® Universal PCR master mix and 1.25 μL of 20× primer mix (Applied Biosystems) in a final reaction volume of 25 μL, according to the manufacturer's instructions. Reactions were performed in triplicate in an Applied Biosystems 7900HT Fast Real-Time PCR System using universal conditions. Transcript levels were quantified and expressed relative to those of the human transferrin receptor (TFRC) as 2^-ΔCt.
# [5] = tested on: MSK-Leuk1 cells; assay: Apoptosis assay (Guava Nexin, annexin V); settings: for decrease of apoptosis: E2 1 nM, 72 h
# Procedure: Apoptosis assay. Apoptosis was assessed using the Guava Nexin® (Millipore Corp., Billerica, Mass.). Fifty thousand cells were plated per well in 6-well plates. After the appropriate treatment, floating cells were collected, combined with attached cells following trypsinization, and resuspended in DermaLife® K Medium (Lifeline Cell Technology, Walkersville, Md.) supplemented with 5% FBS. The cell suspension (100 μl) was incubated with 100 μl of Guava Nexin® Reagent for 20 min, according to the manufacturer's instructions. Two thousand cells were analyzed from each sample using the Guava EasyCyte™ system, and the resulting data were expressed as a percentage of apoptotic cells (annexin V positive cells/total number of cells counted).
Compound,"levels of ERβ, CYP1B1 and COMT transcripts [1]",effect of treatment on motility (gap closure) [2],increase of cell proliferation [3],levels of COMT and ERβ transcripts post-treatment [4],"induction of CYP1B1 transcript levels over vehicle-treated controls ([4]; 24 h, P=0.0004)",time of peak induction of CYP1B1 transcripts ([4]; time course),"decrease of apoptosis ([5]; CYP1B1 shRNA-expressing MSK-Leuk1 cells, P=0.015)","decrease of apoptosis ([5]; vector-expressing MSK-Leuk1 cells, P=0.030)","effect on E2-mediated decrease in apoptosis ([5]; MSK-Leuk1 cells, fulvestrant 1 μM added to E2 1 nM)"
"C[C@]12CC[C@@H]3c4ccc(O)cc4CC[C@H]3[C@@H]1CC[C@@H]2O [E2, 17β-estradiol]",did not alter the level of any of the transcripts of interest,not affected,10%,remained unaltered,2.3 fold,6 h,30.1%,25.5%,
C[C@]12CC[C@@H]3c4ccc(O)cc4C[C@@H](CCCCCCCCC[S+]([O-])CCCC(F)(F)C(F)(F)F)[C@H]3[C@@H]1CC[C@@H]2O (stereo partly drawn) [fulvestrant],,,,,,,,,restored
